System: HCT116 cells
Experiment: Apoptosis induction, Annexin V / 7-AAD flow cytometry
Format: cell-based, human
Description: Apoptosis is an important and active regulatory pathway of cell growth and proliferation. Annexin V is a calcium-dependent phospholipid-binding protein with a high affinity for phosphatidylserine (PS), a membrane component normally localized to the internal face of the cell membrane. Early in the apoptotic pathway, molecules of PS are translocated to the outer surface of the cell membrane where Annexin V can readily bind them.
After incubation, the cells were harvested by trypsinization, precipitated by centrifugation (3000 rpm), washed with cold PBS and recentrifuged. Aliquots of cells were processed as recommended in the Muse Annexin V& Dead Cell Kit (Luminex Corporation, Austin, TX, USA). The results were recorded on a Muse Cell Analyzer flow cytometer (Merck, Rahway, NJ, USA).

COc1ccc(N(C)c2nc(C)nc3c2CCCC3)cc1 [Compound 2c, N-(4-methoxyphenyl)-N,2-dimethyl-5,6,7,8-tetrahydroquinazolin-4-amine]
apoptotic cells, early plus late (2 × IC50, 48 h, HCT116): 30%
Live (viable cells) (human, 48 h): 69.45%

— publication PMC10610134, “Verubulin (Azixa) Analogues with Increased Saturation: Synthesis, SAR and Encapsulation in Biocompatible Nanocontainers Based on Ca^2+ or Mg^2+ Cross-Linked Alginate” (Pharmaceuticals, 2023)
